Data on eight molecules can be found in ChEMBL document CHEMBL1201862, “PubChem BioAssay data set” (2004).

Structures are written as SMILES.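 Values below derive from 48-hour exposures of cells grown in 96-well plates, with endpoints linearly interpolated between the two concentrations bracketing the appropriate inhibition level. GI50 marks 50% less growth.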 Calls of active or inactive are those of the source. No stated cut-off is given here; in the data, active = GI50 up to about 1.1 µM and inactive = higher.

Some test systems named below: COLO 205; HCT-15; HOP-62; CAKI-1; HCT-116; SF-268; HOP-92; MCF7; IGROV-1; MDA-MB-231; OVCAR-8; RPMI-8226; SR; UACC-257; A498; NCI-H522; SK-MEL-5; M14; OVCAR-4.
Common to all, as to assay: NCI anticancer screen, dose series, 48 h

On to `Cc1nn(-c2ccccn2)c2c1C(SC#N)=C(C=O)CC2`, for which the GI50 in the test with COLO 205 is 10.5 µM (inactive); with HCT-15 it was 17.4 µM; in the test with HOP-62, 9.38 µM (inactive); in the test on CAKI-1 it was 5.64 µM (inactive); in the test with HCT-116, 16 µM (inactive); with SF-268 it was 16.5 µM (inactive). In addition, the GI50 with HOP-92 was 16.5 µM (inactive); in the test on MCF7, 10.5 µM (inactive); with IGROV-1 it was 11.5 µM (inactive); in the test on MDA-MB-231, 18 µM (inactive); with OVCAR-8 it was 15.9 µM (inactive); in the test on RPMI-8226 it was 13.3 µM (inactive). Besides, the GI50 in the test with SR was 10.1 µM (inactive); in the test with UACC-257, 5.12 µM (inactive); in the test on A498 it was 2.29 µM (inactive); in the test with NCI-H522, 19.5 µM (inactive); with SK-MEL-5, 15 µM (inactive); in the test with M14 it was 15.8 µM (inactive).

On to `CCCCCCCCCCCCCCCC(=O)OCC(O)C1OC(=O)C(O)=C1O` (stereo unspecified), for which the GI50 is > 100 µM (inactive) in the test with COLO 205; 32.5 µM in the test with HCT-15; 31.4 µM (inactive) in the test with HOP-62; 43.9 µM (inactive) with CAKI-1; 19.3 µM (inactive) in the test on HCT-116; 26.4 µM (inactive) with SF-268. Moreover, the GI50 was < 0.01 µM (active) in the test on HOP-92; 52.8 µM (inactive) in the test with OVCAR-4; < 0.01 µM (active) in the test with MCF7; 37.6 µM (inactive) in the test with IGROV-1; 28.8 µM (inactive) in the test with MDA-MB-231; 58.2 µM (inactive) in the test with SR. The GI50 in the test with UACC-257 is > 100 µM (inactive); in the test with A498 it was 35.7 µM (inactive); in the test with NCI-H522 it was 34.4 µM (inactive); with SK-MEL-5, > 100 µM (inactive); in the test on M14, 18.8 µM (inactive).

For `CC(C)CCCC(C)[C@H]1CC[C@H]2N/C(=N/c3ccccc3)CCC[C@]12C` (stereo partly specified), the GI50 was 1.3 µM (inactive) in the test with COLO 205; 1.07 µM in the test with HCT-15; 2.52 µM (inactive) in the test on HOP-62; 2.29 µM (inactive) with CAKI-1; 2.28 µM (inactive) in the test on HCT-116; 2.06 µM (inactive) in the test with SF-268. The GI50 was 2.97 µM (inactive) in the test with HOP-92; 3.56 µM (inactive) with OVCAR-4; 1.79 µM (inactive) in the test on MCF7; 1.61 µM (inactive) with IGROV-1; 1.14 µM (inactive) in the test with MDA-MB-231; 0.893 µM (active) in the test on OVCAR-8. The GI50 in the test with RPMI-8226 was 1.65 µM (inactive); in the test on SR it was 1.77 µM (inactive); in the test on UACC-257, 2.12 µM (inactive); in the test with A498, 3.35 µM (inactive); with SK-MEL-5 it was 1.27 µM (inactive); with M14, 1.87 µM (inactive).

As to `O=C1CN(C(=O)C2CCCN2C(=O)C2CCCN2)C(=O)CN1` (stereo unspecified), the GI50 with COLO 205 is > 100 µM (inactive); with HCT-15, > 100 µM; with HOP-62 it was > 100 µM (inactive); with CAKI-1 it was > 100 µM (inactive); in the test on HCT-116 it was > 100 µM (inactive); in the test on SF-268 it was > 100 µM (inactive). Further, the GI50 in the test on HOP-92, in the test with OVCAR-4, in the test on MCF7, in the test on IGROV-1, in the test with MDA-MB-231 and in the test with OVCAR-8 was > 100 µM (inactive) throughout. Also, the GI50 in the test on RPMI-8226 was > 100 µM (inactive); in the test on SR it was > 100 µM (inactive); in the test with A498 it was 55.2 µM (inactive); in the test with NCI-H522, > 100 µM (inactive); with SK-MEL-5 it was > 100 µM (inactive); in the test with M14, > 100 µM (inactive).

On to `CC(C)(C)/C(O)=C\c1nc2cc(F)c(F)cc2[nH]c1=O`, for which the GI50 with COLO 205 is > 100 µM (inactive); in the test with HCT-15, > 100 µM; in the test with HOP-62, > 100 µM (inactive); with CAKI-1, > 100 µM (inactive); with HCT-116 it was > 100 µM (inactive); in the test with SF-268, > 100 µM (inactive). In addition, the GI50 with HOP-92 was > 100 µM (inactive); in the test with OVCAR-4 it was > 100 µM (inactive); in the test with MCF7, > 100 µM (inactive); in the test with IGROV-1, > 100 µM (inactive); in the test on MDA-MB-231, 25.1 µM (inactive); in the test on OVCAR-8, > 100 µM (inactive). The GI50 in the test with SR, with UACC-257, with A498, in the test with SK-MEL-5 and in the test with M14 was > 100 µM (inactive) each time.

Take `O=C1C(CO)=C[C@@H](O)[C@H]2O[C@@H]12` [EPOXYDON]: the GI50 with COLO 205 is > 100 µM (inactive); in the test on HCT-15 it was > 100 µM; in the test with HOP-62, > 100 µM (inactive); with CAKI-1, > 100 µM (inactive); in the test with HCT-116 it was 31.1 µM (inactive); with SF-268, > 100 µM (inactive). The GI50 is > 100 µM (inactive) in the test with HOP-92; 17.7 µM (inactive) with OVCAR-4; 21.7 µM (inactive) in the test with MCF7; > 100 µM (inactive) with IGROV-1; > 100 µM (inactive) with MDA-MB-231; > 100 µM (inactive) in the test on OVCAR-8. Further, the GI50 with RPMI-8226 is 33.3 µM (inactive); with SR, > 100 µM (inactive); in the test on A498, > 100 µM (inactive); with NCI-H522 it was > 100 µM (inactive); with SK-MEL-5 it was > 100 µM (inactive); in the test with M14 it was > 100 µM (inactive).

As for `CCOC(=O)C(Cl)(Cl)/S(=N\S(=O)(=O)c1ccccc1)NC(=O)c1ccccc1` (stereo unspecified), the GI50 is > 100 µM (inactive) with COLO 205; > 100 µM in the test on HCT-15; > 100 µM (inactive) with HOP-62; > 100 µM (inactive) in the test on HCT-116; > 100 µM (inactive) with SF-268; > 100 µM (inactive) with HOP-92. For the same molecule, the GI50 in the test with OVCAR-4, with MCF7, in the test on IGROV-1, in the test with MDA-MB-231, in the test on OVCAR-8 and in the test on RPMI-8226 was > 100 µM (inactive) in each case. The GI50 with SR, with UACC-257, in the test with A498, in the test on SK-MEL-5 and with M14 was > 100 µM (inactive) in each case.

For the molecule `O=C(NC1(c2cc3ccccc3s2)CCCCC1)C1CCC1`, the GI50 in the test on COLO 205 is > 100 µM (inactive); in the test on HCT-15, > 100 µM; in the test on HOP-62 it was > 100 µM (inactive); with CAKI-1, > 100 µM (inactive); with HCT-116, > 100 µM (inactive); in the test with HOP-92, > 100 µM (inactive). For the same molecule, the GI50 in the test with OVCAR-4 is 97.5 µM (inactive); with MCF7 it was > 100 µM (inactive); with IGROV-1 it was > 100 µM (inactive); in the test with MDA-MB-231, 69.5 µM (inactive); with OVCAR-8, 66.4 µM (inactive); with RPMI-8226, > 100 µM (inactive). The GI50 in the test on SR, in the test with UACC-257, in the test with A498, in the test on NCI-H522, in the test with SK-MEL-5 and in the test with M14 was > 100 µM (inactive) throughout.
